Counter-ions that a name gives are not always drawn.
Legend:
[1] = test system: human osteoclasts; experiment: Human osteoclast-mediated bone resorption assay; type: cell-based; details: concentrations up to 3 uM, 24 hours
Method: The isolation of disaggregated human osteoclasts from fresh osteoclastoma tissue and the in vitro human osteoclast resorption assay were performed according to James, J. Bone Min. Res., Vol. 11, pp. 1453-1460. Briefly, human osteoclasts were seeded onto bovine cortical bone particles with compound or vehicle for 24 hours at 37° C. The culture media were then removed and the levels of the carboxy-terminal peptide of the α1 chain of human type I collagen were quantified as a biochemical readout of resorption, using a competitive binding enzyme linked immunosorbant assay (ELISA) (19) (Osteometer A/S, Rodovre, Denmark). The results are expressed as percent inhibition of resorption compared to supernatants derived from osteoclasts cultured in vehicle without inhibitor. IC50 values are determined from the resultant dose response curves.

[2] = test system: osteopenic ovx rats; experiment: Ovariectomized rat Study 1: dynamic histomorphometry of proximal tibia; type: in vivo
Source text: (§1) Seven month old virgin Sprague Dawley female rats were subjected to bilateral ovariectomy or sham surgery and the animals then held for a period of three months to allow the development of osteopenia. At that time a single sham group (n=10) and three groups of ovariectomized (ovx) animals (n=10-14) were assigned. The ovx groups were selected such that there was no significant difference in bone mineral density (“BMD”) of the lumbar spine, proximal tibia or distal femur between groups. Groups consisted of sham and ovx controls treated with dose vehicle (20% aqueous encapsin) and ovx groups treated with either N-[(2R-Hydroxy-3-[(3-chloro-2-cyano)phenoxy-propyl]-1,1-dimethyl-2-(2-naphthyl)ethyl amine hydrochloride (“calcilytic administered”) ([…] body weight daily p.o.) or rat PTH 1-34 (5 ug/kg body weight daily s.c.).
(§2) During the study blood samples were drawn for determination of circulating PTH and osteocalcin. BMD was determined by DXA (QDR4500 Hologic, Waltham, Mass.) prior to treatment and at weeks 4 and 8. At term tibiae were removed for histological analysis. All animals received tetracycline 10 and 3 days prior to the start of dosing and calcein (10 mg/kg) 10 and 3 days prior to sacrifice.
(§3) Bone samples were dehydrated through increasing concentrations of ethanol, defatted in acetone and embedded in methyl methacrylate (Polysciences, Inc., Warrington, Pa.). Longitudinal undecalcified sections (5 μm) sections of the proximal tibial were cut on a Leica microtome (SM2500S); the tissue blocks had been prestained with Villanueva stain. Histomorphometric analysis was carried out using an Osteomeasure system (OsteoMetrics Incorpotated), without knowledge of group allocation. Measurements within the tibial metaphysis were restricted to a mean tissue area of approximately 8 mm^2 beginning 1 mm below the growth plate. Primary measurements included area of bone and marrow (mm^2), bone area (mm^2), perimeter of bone (mm), single and double-labelled perimeter (sL.Pm, dL.Pm, m), osteoid perimeter (O.Pm, m) and eroded perimeter (Er.P, m). Derived indices included trabecular bone volume (% Tb.Ar), trabecular number (Th.N, mm^−1), trabecular thickness (Th.Th, μm), trabecular separation (Th.Sp, μm), bone formation rate, surface referent (BFR/Tb.Pm, μm^3/μm^2/year), BFR/Tb.Ar (bone area referent, %/year), BFR/B.Ar (tissue referent, %/year) and mineral apposition rate (MAR, μm/day), and percent labelled perimeter (% Lp). Statistical analysis was assessed by a two sided t-test.

[3] = test system: TF274 cells; experiment: Osteoblast alkaline phosphatase activity; type: cell-based, human; details: compound 0.1, 1 and 10 uM
Method: (§4) cAMP accumulation was measured in both human TF274 osteoblastic cells (derived by immortalization of human bone marrow stromal cells) see James, supra, and primary human osteoblasts derived from explants of trabecular bone as described in Beresford, Biochim. Biophys. Acta, Vol. 801, pp. 58-65 ([…]). cAMP levels in cell samples were measured using a non-radioactive protocol (Amersham kit). Alkaline phosphatase activity was determined using the standard colorimetric method as described previously in Gowen, Arth. Rheum., Vol. 31, pp. 1500-1507 (1988). N-[(2R-Hydroxy-3-[(3-chloro-2-cyano)phenoxy-propyl]-1,1-dimethyl-2-(2-naphthyl)ethyl amine hydrochloride was tested at 0.1, 1 and 10 uM. PTH 40 ng/ml was used as a positive control.

[4] = test system: human TF274 osteoblastic cells; experiment: Osteoblast cAMP production, TF274 cells; type: cell-based; details: compound 0.1, 1 and 10 uM
Method: as §4

[5] = test system: osteopenic ovx rats; experiment: Ovariectomized rat Study 2: calcilytic plus/minus 17β estradiol, histology and histomorphometry of proximal tibia; type: in vivo; details: Study 2, proximal tibia, static histomorphometry, vs ovx group
Method: as §3, with “Animals were prepared and monitored as described above. […] Dosing continued for 5 weeks at which point the animals were sacrificed and the tibiae were collected for histological analysis. Bone” for “Bone”, “(S[…]);” for “(SM2500S);”, “Derived indices included trabecular bone volume (% Tb.Ar), trabecular number (Th.N, mm^−1), trabecular thickness (Th.Th, μm), trabecular separation (Th.Sp, μm), bone formation rate, surface referent (BFR/Tb.Pm, μm^3/μm^2/year), BFR/Tb.Ar (bone area referent, %/year), BFR/B.Ar (tissue referent, %/year) and mineral apposition rate (MAR, μm/day), and percent labelled perimeter (% Lp).” left out

[6] = test system: plasma PTH; experiment: Ovariectomized rat Study 1: circulating PTH levels (RIA); type: in vivo
Source text: as §1, §2
Timed plasma samples were collected relative to administration of compound or PTH. PTH 1-34 was measured by RIA (Nichols Institute Diagnostics, San Juan Capistrano, Calif.). The concentrations of compound in the plasma were quantified by LC/MS/MS (limit of detection 10 ng/ml).

[7] = Study 1, proximal tibia, vs ovx control, calcilytic 100 mmol/kg p.o. or PTH 5 ug/kg s.c. daily

CC(C)(Cc1ccc2ccccc2c1)NC[C@@H](O)COc1cccc(Cl)c1C#N [N-[(2R-Hydroxy-3-[(3-chloro-2-cyano)phenoxy-propyl]-1,1-dimethyl-2-(2-naphthyl)ethylamine hydrochloride] was tested. Which “effect on human osteoclast mediated bone resorption” value [1] did it give?
The value was “no effect”.

And the “bone formation and resorption, net bone gain or loss” value ([2]; Study 1, overall outcome)?
Its value is “dramatic increase in both bone formation and resorption, with no net bone gain or loss”.

And the “bone turnover, BFR/B.Ar.” value ([2]; Study 1, proximal tibia, compared with PTH and ovx control groups)?
The value was “dramatic increase”.

What about the “bone resorption, % eroded perimeter” value ([2]; Study 1, proximal tibia, vs PTH or ovx control groups) of the same molecule?
The value was “significantly higher”.

And the “bone formation: % labeled perimeter (% L.Pm.)” value [2, 7]?
Its value is “elevated above the ovx control level”.

And the “bone formation: % osteoid perimeter (% Os.Pm)” value [2, 7]?
Its value is “elevated above the ovx control level”.

What about the alkaline phosphatase activity [3] of the same molecule?
The alkaline phosphatase activity was “did not result in any change”.

What about the PTH-induced alkaline phosphatase ([3]; PTH 40 ng/ml) of the same molecule?
The PTH-induced alkaline phosphatase was “nor was PTH-induced alkaline phosphatase affected”.

What about the “PTH-induced cAMP levels” value ([4]; PTH 40 ng/ml) of the same molecule?
Its value is “no effect”.

And the “cAMP levels (basal)” value ([4]; PTH 40 ng/ml positive control)?
The value was “no effect”.

And the “% trabecular area (% Tb.Ar.) / ovx-induced bone loss” value [5]?
Its value is “no effect”.

And the “plasma PTH levels at four hours after administration” value ([6]; Study 1, after calcilytic 100 mmol/kg p.o.)?
Its value is “remained high”.

And the “plasma PTH levels” value ([6]; Study 1, end of experiment, after calcilytic 100 mmol/kg p.o.)?
Its value is > 100 pg/mL.

And the “plasma PTH levels after 24 hours” value ([6]; Study 1, immediately prior to next dose of calcilytic)?
Its value is “back to baseline”.

Source: US20060035927A1, “Calcilytic compounds” (SmithKline Beecham Corporation, priority 1999, published 2006)
